From patent publication US8637510B2, “Morpholinothiazoles as alpha 7 positive allosteric modulators” (Janssen Pharmaceutica NV, priority 2009, dated 2014) come the findings set out here.

SMILES strings stand for the structures.

Broadly, the melting point is the temperature, or range, at which the solid turns liquid.

The target in one series is T1, human alpha 7-wt nAChR (Homo sapiens, UniProt P36544).
T1 construct: expressed in transfected cells
The experiment in a line: Ca2+ flux imaging (FDSS) (Protocol B). It counts as cell-based. To be noted: for Emax: efficacy of 100 μM choline defined as 100% in the absence of a PAM, read-out: a7-PAM-G_[33]_Eff_Curve_FI % Efficacy; for EC50: potentiation of 100 μM choline, compounds 0.01 μM to 30 μM, read-out: a7-PAM-G_[33]_pEC50 pEC50 (converted). The method, boiled down: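 PAM activity was measured as FDSS calcium fluorescence in α7-wt nAChR cells loaded with 2 μM Fluo-4AM, with compounds at 0.01–30 μM added alongside or 10 min ahead of sub-maximal 100 μM choline. Peak responses were normalised to choline-only efficacy, and EC50 was taken at half-maximal effect.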
Background: Calcium flux is commonly read through the fluorescence of an indicator in the cells.

T1 sequence (P36544 23-502): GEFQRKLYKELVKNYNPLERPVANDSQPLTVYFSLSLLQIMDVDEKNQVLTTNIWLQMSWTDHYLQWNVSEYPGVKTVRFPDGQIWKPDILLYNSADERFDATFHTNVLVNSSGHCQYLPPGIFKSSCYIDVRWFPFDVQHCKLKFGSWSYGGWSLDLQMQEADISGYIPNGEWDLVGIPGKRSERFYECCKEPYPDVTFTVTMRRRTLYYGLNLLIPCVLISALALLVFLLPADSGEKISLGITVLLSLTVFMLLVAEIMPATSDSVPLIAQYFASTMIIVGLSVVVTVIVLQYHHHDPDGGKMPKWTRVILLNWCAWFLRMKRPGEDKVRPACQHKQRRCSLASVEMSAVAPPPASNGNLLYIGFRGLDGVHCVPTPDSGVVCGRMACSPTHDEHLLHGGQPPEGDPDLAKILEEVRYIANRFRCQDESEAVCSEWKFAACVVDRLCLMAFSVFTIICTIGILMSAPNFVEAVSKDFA

In turn, `Cc1cc(-c2sc(N3C[C@@H](C)O[C@@H](C)C3)nc2CNC(=O)c2cccc(C(F)(F)F)c2)cc(C)n1` [Compound 44, N-[[2-[(2R,6S)-2,6-dimethyl-4-morpholinyl]-5-(2,6-dimethyl-4-pyridinyl)-4-thiazolyl]methyl]-3-(trifluoromethyl)-benzamide] returned a melting point of 180 °C. For the same compound, on human alpha 7-wt nAChR, the Emax was 607% and the EC50 is 0.282 µM.
The matching figures for `Cc1cc(-c2sc(N3C[C@@H](C)O[C@@H](C)C3)nc2CNC(=O)c2ccc3c(c2)OC(F)(F)O3)cc(C)n1` [Compound 45, N-[[2-[(2R,6S)-2,6-dimethyl-4-morpholinyl]-5-(2,6-dimethyl-4-pyridinyl)-4-thiazolyl]methyl]-2,2-difluoro-1,3-benzodioxole-5-carboxamide]: 175 °C, 566% and 0.355 µM.
The matching figures for `Cc1cc(-c2sc(N3C[C@@H](C)O[C@@H](C)C3)nc2CNC(=O)c2cccc3c2OC(F)(F)O3)cc(C)n1` [Compound 46, N-[[2-[(2R,6S)-2,6-dimethyl-4-morpholinyl]-5-(2,6-dimethyl-4-pyridinyl)-4-thiazolyl]methyl]-2,2-difluoro-1,3-benzodioxole-4-carboxamide]: 185 °C, 610% and 0.331 µM.
As for `Cc1cc(-c2sc(N3C[C@@H](C)O[C@@H](C)C3)nc2CNC(=O)CC2CCC2)cc(C)n1` [Compound 49, N-[[2-[(2R,6S)-2,6-dimethyl-4-morpholinyl]-5-(2,6-dimethyl-4-pyridinyl)-4-thiazolyl]methyl]-cyclobutaneacetamide], the melting point is 153 °C. The EC50 at human alpha 7-wt nAChR is 0.0263 µM.
As to `Cc1cc(-c2sc(N3C[C@@H](C)O[C@@H](C)C3)nc2CNC(=O)CCC2CC2)cc(C)n1` [Compound 50, N-[[2-[(2R,6S)-2,6-dimethyl-4-morpholinyl]-5-(2,6-dimethyl-4-pyridinyl)-4-thiazolyl]methyl]-cyclopropanepropanamide], the melting point was determined as 168 °C. In addition, on human alpha 7-wt nAChR, the Emax was determined as 953% and the EC50 was 0.0661 µM.
In the same order, the values of `Cc1cc(-c2sc(N3CCOCC3)nc2CNC(=O)c2cc(C)on2)cc(C)n1` [Compound 63, N-[[5-(2,6-dimethyl-4-pyridinyl)-2-(4-morpholinyl)-4-thiazolyl]methyl]-5-methyl-3-isoxazolecarboxamide] are 197 °C, 969% and 1.82 µM.
Consider `Cc1cc(-c2sc(N3CCOCC3)nc2CNC(=O)CC2CC2)cc(C)n1` [Compound 64, N-[[5-(2,6-dimethyl-4-pyridinyl)-2-(4-morpholinyl)-4-thiazolyl]methyl]-cyclopropaneacetamide], for which the melting point came out at 188 °C. Besides, the Emax on human alpha 7-wt nAChR is 980%.
With `Cc1cc(-c2sc(N3CCOCC3)nc2CNC(=O)C2CCC2)cc(C)n1` [Compound 65, N-[[5-(2,6-dimethyl-4-pyridinyl)-2-(4-morpholinyl)-4-thiazolyl]methyl]-cyclobutanecarboxamide], the melting point amounted to 188 °C. Moreover, the EC50 on human alpha 7-wt nAChR is 3.24 µM.
In the same order, the values of `Cc1cc(-c2sc(N3CCOCC3)nc2CNC(=O)c2ccc(F)cc2)cc(C)n1` [Compound 66, N-[[5-(2,6-dimethyl-4-pyridinyl)-2-(4-morpholinyl)-4-thiazolyl]methyl]-4-fluoro-benzamide] are 210 °C and 1.2 µM.
Regarding `CCCC(=O)NCc1nc(N2CCOCC2)sc1-c1cc(C)nc(C)c1` [Compound 67, N-[[5-(2,6-dimethyl-4-pyridinyl)-2-(4-morpholinyl)-4-thiazolyl]methyl]-butanamide], the melting point came to 178 °C. For the same compound, at human alpha 7-wt nAChR, the Emax turned out to be 959% and the EC50 is 5.37 µM.
In the same order, the values of `Cc1cc(-c2sc(N3CCOCC3)nc2CNC(=O)c2ccc(F)cc2C)cc(C)n1` [Compound 80, N-[[5-(2,6-dimethyl-4-pyridinyl)-2-(4-morpholinyl)-4-thiazolyl]methyl]-4-fluoro-2-methyl-benzamide] are 221 °C, 902% and 0.661 µM.
The matching figures for `Cc1cc(-c2sc(N3C[C@@H](C)O[C@@H](C)C3)nc2CNC(=O)c2cccc(F)c2)ccn1` [Compound 93, N-[[2-[(2R,6S)-2,6-dimethyl-4-morpholinyl]-5-(2-methyl-4-pyridinyl)-4-thiazolyl]methyl]-3-fluoro-benzamide]: 153 °C, 477% and 0.479 µM.
Take `Cc1cc(-c2sc(N3C[C@@H](C)O[C@@H](C)C3)nc2CNC(=O)c2ccc(F)cc2)ccn1` [Compound 94, N-[[2-[(2R,6S)-2,6-dimethyl-4-morpholinyl]-5-(2-methyl-4-pyridinyl)-4-thiazolyl]methyl]-4-fluoro-benzamide]: the melting point came to 225 °C. Also, on human alpha 7-wt nAChR, the Emax was 420% and the EC50 was 0.479 µM.
In turn, `Cc1cc(-c2sc(N3C[C@@H](C)O[C@@H](C)C3)nc2CNC(=O)C2CCCC2)c(C)cn1` [Compound 96, N-[[2-[(2R,6S)-2,6-dimethyl-4-morpholinyl]-5-(2,5-dimethyl-4-pyridinyl)-4-thiazolyl]methyl]-cyclopentanecarboxamide] returned a melting point of 173 °C. In addition, on human alpha 7-wt nAChR, the Emax is 420% and the EC50 is 0.676 µM.
Turning to `Cc1cc(-c2sc(N3C[C@@H](C)O[C@@H](C)C3)nc2CNC(=O)CC2CC2)c(C)cn1` [Compound 97, N-[[2-[(2R,6S)-2,6-dimethyl-4-morpholinyl]-5-(2,5-dimethyl-4-pyridinyl)-4-thiazolyl]methyl]-cyclopropaneacetamide], the melting point was 138 °C. At human alpha 7-wt nAChR, the Emax came out at 424% and the EC50 is 3.02 µM.
Take `Cc1cc(-c2sc(N3C[C@@H](C)O[C@@H](C)C3)nc2CNC(=O)c2cc(C)on2)c(C)cn1` [Compound 98, N-[[2-[(2R,6S)-2,6-dimethyl-4-morpholinyl]-5-(2,5-dimethyl-4-pyridinyl)-4-thiazolyl]methyl]-5-methyl-3-isoxazolecarboxamide]: the melting point worked out at 155 °C. Moreover, on human alpha 7-wt nAChR, the EC50 is 4.07 µM.
In the same order, the values of `C[C@@H]1CN(c2nc(CNC(=O)CC3CC3)c(-c3ccncc3)s2)C[C@H](C)O1` [Compound 99, N-[[2-[(2R,6S)-2,6-dimethyl-4-morpholinyl]-5-(4-pyridinyl)-4-thiazolyl]methyl]-cyclopropaneacetamide] are 178 °C and 7.41 µM.
In the same order, the values of `Cc1cc(C(=O)NCc2nc(N3C[C@@H](C)O[C@@H](C)C3)sc2-c2ccncc2)no1` [Compound 100, N-[[2-[(2R,6S)-2,6-dimethyl-4-morpholinyl]-5-(4-pyridinyl)-4-thiazolyl]methyl]-5-methyl-3-isoxazolecarboxamide] are 182 °C and 1.82 µM.
Take `Cc1cc(F)ccc1C(=O)NCc1nc(N2C[C@@H](C)O[C@@H](C)C2)sc1-c1ccncc1` [Compound 102, N-[[2-[(2R,6S)-2,6-dimethyl-4-morpholinyl]-5-(4-pyridinyl)-4-thiazolyl]methyl]-4-fluoro-2-methyl-benzamide]: the melting point worked out at 161 °C. On human alpha 7-wt nAChR, the Emax stood at 982% and the EC50 is 0.347 µM.
Compound `CC(C)CC(=O)NCc1nc(N2C[C@@H](C)O[C@@H](C)C2)sc1-c1ccncc1` [Compound 103, N-[[2-[(2R,6S)-2,6-dimethyl-4-morpholinyl]-5-(4-pyridinyl)-4-thiazolyl]methyl]-3-methyl-butanamide] registered a melting point of 173 °C. The EC50 at human alpha 7-wt nAChR was 1.29 µM.
In turn, `Cc1cc(C(=O)NCc2nc(N3CCOCC3)sc2-c2ccncc2)no1` [Compound 111, 5-methyl-N-[[2-(4-morpholinyl)-5-(4-pyridinyl)-4-thiazolyl]methyl]-3-isoxazolecarboxamide] returned a melting point of 191 °C. Further, the Emax on human alpha 7-wt nAChR worked out at 812%.
The matching figures for `O=C(CC1CC1)NCc1nc(N2CCOCC2)sc1-c1ccncc1` [Compound 112, N-[[2-(4-morpholinyl)-5-(4-pyridinyl)-4-thiazolyl]methyl]-cyclopropaneacetamide]: 135 °C and 525%.
Turning to `Cc1cc(F)ccc1C(=O)NCc1nc(N2CCOCC2)sc1-c1ccncc1` [Compound 113, 4-fluoro-2-methyl-N-[[2-(4-morpholinyl)-5-(4-pyridinyl)-4-thiazolyl]methyl]-benzamide], the melting point is 191 °C. For the same compound, on human alpha 7-wt nAChR, the Emax stood at 730% and the EC50 was 2.75 µM.
Compound `Cc1nocc1C(=O)NCc1nc(N2CCOCC2)sc1-c1ccncc1` [Compound 114, 3-methyl-N-[[2-(4-morpholinyl)-5-(4-pyridinyl)-4-thiazolyl]methyl]-4-isoxazolecarboxamide] registered a melting point of 234 °C. On human alpha 7-wt nAChR, the Emax turned out to be 313%.
Consider `O=C(NCc1nc(N2CCOCC2)sc1-c1ccncc1)C1CC1` [Compound 116, N-[[2-(4-morpholinyl)-5-(4-pyridinyl)-4-thiazolyl]methyl]-cyclopropanecarboxamide], for which the melting point was found to be 189 °C. At human alpha 7-wt nAChR, the Emax was found to be 259%.
In the same order, the values of `Cc1ccc(-c2sc(N3C[C@@H](C)O[C@@H](C)C3)nc2CNC(=O)c2conc2C)cn1` [Compound 117, N-[[2-[(2R,6S)-2,6-dimethyl-4-morpholinyl]-5-(6-methyl-3-pyridinyl)-4-thiazolyl]methyl]-3-methyl-4-isoxazolecarboxamide] are 129 °C and 665%.
